Laboratory results published in ChEMBL document CHEMBL4602617, “Discovery and optimization of heteroaryl piperazines as potent and selective PI3Kδ inhibitors” (Bioorg Med Chem Lett, 2020).

What was measured:
[1] = molecular target: Serine/threonine-protein kinase B-raf (Homo sapiens, UniProt P15056); assay: Inhibition of recombinant full length human GST-tagged BRAF expressed in baculovirus expression system using tyrosine-1 peptide as substrate incubated for 60 mins in presence of ATP by Z'-LYTE assay
[2] = molecular target: Mitogen-activated protein kinase 12 (Homo sapiens, UniProt P53778); assay: Inhibition of recombinant full length human His-tagged p38gamma expressed in baculovirus expression system using serine/threonine-3 peptide as substrate incubated for 60 mins in presence of ATP by Z'-LYTE assay
[3] = molecular target: Mu-type opioid receptor (Homo sapiens) (UniProt P35372); assay: Displacement of [3H]diprenorphine from full length human recombinant Mu opioid receptor expressed in CHO-K1 cells at 10 uM measured after 60 mins by radiometric scintillation analysis relative to control; format: cell-based
[4] = molecular target: Homeodomain-interacting protein kinase 1 (Homo sapiens, UniProt Q86Z02); assay: Inhibition of recombinant human GST-tagged HIPK1 catalytic domain expressed in baculovirus expression system using serine/threonine-9 peptide as substrate incubated for 60 mins in presence of ATP by Z'-LYTE assay
Chain of Homeodomain-interacting protein kinase 1 (Q86Z02 whole entry, the tested form may be a part): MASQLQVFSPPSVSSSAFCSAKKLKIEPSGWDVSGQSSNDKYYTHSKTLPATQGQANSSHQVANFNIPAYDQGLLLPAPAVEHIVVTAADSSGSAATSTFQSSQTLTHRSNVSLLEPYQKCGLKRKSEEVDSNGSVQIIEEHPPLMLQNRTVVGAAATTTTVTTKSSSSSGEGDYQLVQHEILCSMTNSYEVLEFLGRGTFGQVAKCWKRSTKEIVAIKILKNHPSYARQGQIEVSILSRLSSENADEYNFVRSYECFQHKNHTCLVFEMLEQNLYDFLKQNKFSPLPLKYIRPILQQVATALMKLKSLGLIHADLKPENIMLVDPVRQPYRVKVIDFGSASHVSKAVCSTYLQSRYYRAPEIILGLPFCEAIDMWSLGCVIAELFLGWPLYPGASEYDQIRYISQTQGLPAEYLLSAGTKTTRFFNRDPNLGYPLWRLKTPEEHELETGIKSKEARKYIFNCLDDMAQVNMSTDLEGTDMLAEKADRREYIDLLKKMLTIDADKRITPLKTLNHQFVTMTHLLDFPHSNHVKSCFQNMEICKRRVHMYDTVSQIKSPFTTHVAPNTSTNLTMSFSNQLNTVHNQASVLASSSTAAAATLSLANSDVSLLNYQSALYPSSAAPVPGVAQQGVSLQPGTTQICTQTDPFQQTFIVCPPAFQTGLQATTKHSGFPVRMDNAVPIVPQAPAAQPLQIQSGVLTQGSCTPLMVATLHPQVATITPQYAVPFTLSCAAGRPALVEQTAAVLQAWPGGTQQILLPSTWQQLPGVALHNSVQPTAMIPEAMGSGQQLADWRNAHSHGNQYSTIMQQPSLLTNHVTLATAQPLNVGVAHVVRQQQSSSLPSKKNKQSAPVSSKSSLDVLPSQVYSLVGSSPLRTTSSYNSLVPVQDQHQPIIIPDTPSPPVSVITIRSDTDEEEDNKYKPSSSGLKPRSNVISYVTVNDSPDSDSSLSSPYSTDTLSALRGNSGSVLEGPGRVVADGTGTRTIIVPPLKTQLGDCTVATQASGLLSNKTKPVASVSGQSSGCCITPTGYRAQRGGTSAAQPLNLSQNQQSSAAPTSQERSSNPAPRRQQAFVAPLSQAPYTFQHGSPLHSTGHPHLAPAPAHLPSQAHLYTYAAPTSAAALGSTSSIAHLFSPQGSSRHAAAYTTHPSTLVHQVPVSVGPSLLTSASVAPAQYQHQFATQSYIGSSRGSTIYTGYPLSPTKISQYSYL

[5] = molecular target: High affinity nerve growth factor receptor (Homo sapiens, UniProt P04629); assay: Inhibition of recombinant human His-tagged NTRK1 cytoplasmic domain expressed in baculovirus expression system using FRET-labeled tyr 07 peptide as substrate measured after 1 hr in presence of ATP by Z'-lyte assay
Chain of High affinity nerve growth factor receptor (P04629 whole entry, the tested form may be a part): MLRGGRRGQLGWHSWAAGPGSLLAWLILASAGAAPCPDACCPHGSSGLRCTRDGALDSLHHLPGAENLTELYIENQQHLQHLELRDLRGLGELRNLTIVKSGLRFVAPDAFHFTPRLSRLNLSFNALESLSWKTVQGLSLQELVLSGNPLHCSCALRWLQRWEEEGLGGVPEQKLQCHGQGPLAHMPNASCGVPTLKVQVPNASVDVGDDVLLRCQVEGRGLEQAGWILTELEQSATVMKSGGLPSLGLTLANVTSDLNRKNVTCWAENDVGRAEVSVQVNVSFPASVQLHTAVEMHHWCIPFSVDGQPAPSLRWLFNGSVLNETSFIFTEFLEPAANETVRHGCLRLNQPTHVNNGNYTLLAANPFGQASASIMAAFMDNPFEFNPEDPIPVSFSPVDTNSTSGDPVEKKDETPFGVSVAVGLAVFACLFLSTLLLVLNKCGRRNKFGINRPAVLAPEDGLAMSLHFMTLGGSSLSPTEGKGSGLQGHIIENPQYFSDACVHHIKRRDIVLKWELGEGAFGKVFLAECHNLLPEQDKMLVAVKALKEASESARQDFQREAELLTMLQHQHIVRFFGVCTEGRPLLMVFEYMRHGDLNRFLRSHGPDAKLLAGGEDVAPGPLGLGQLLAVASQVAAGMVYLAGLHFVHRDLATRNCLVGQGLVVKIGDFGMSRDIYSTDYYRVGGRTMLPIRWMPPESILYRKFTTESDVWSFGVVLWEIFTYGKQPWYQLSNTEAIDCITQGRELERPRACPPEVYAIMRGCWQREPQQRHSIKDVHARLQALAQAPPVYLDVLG

[6] = molecular target: Alpha-2A adrenergic receptor (Homo sapiens) (UniProt P08913); assay: Displacement of [3H]rauwolscine from full-length recombinant human alpha2A receptor expressed in CHOK1 cells at 10 uM measured after 60 mins by scintillation counting method relative to control; format: cell-based; settings: CHO-K1
Chain of Alpha-2A adrenergic receptor (Homo sapiens) (P08913 whole entry): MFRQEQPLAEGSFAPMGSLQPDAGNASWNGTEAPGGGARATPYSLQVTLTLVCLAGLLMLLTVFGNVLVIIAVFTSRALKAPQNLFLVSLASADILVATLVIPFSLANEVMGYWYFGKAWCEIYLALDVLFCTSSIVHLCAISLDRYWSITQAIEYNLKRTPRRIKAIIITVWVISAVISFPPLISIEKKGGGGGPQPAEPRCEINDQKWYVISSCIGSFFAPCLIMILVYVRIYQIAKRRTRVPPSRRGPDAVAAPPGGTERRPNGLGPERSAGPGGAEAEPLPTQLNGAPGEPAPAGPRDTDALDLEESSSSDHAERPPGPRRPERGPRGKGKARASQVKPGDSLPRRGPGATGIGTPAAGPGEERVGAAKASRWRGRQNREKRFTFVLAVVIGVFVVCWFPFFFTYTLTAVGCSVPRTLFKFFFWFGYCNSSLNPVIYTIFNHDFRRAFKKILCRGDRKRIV

SRSF protein kinase 3 = SRSF protein kinase 3 (Homo sapiens, UniProt Q9UPE1); assay: Inhibition of recombinant full length human GST-tagged MSSK1 expressed in baculovirus expression system using serine/threonine-18 peptide as substrate incubated for 60 mins in presence of ATP by Z'-LYTE assay
[7] = molecular target: Serine/threonine-protein kinase DCLK2 (Homo sapiens, UniProt Q8N568); assay: Inhibition of recombinant full length human GST-tagged DCAMKL2 expressed in baculovirus expression system using serine/threonine-17 peptide as substrate incubated for 60 mins in presence of ATP by Z'-LYTE assay
[8] = molecular target: Tyrosine-protein kinase ABL1 (Homo sapiens, UniProt P00519, T315I); assay: Inhibition of recombinant full length human His-tagged ABL1 T315I mutant cytoplasmic domain expressed in baculovirus expression system using tyrosine-2 peptide as substrate incubated for 60 mins in presence of ATP by Z'-LYTE assay
[9] = molecular target: Macrophage-stimulating protein receptor (Homo sapiens, UniProt Q04912); assay: Inhibition of recombinant human GST-tagged RON catalytic domain (983 to 1400 residues) expressed in baculovirus expression system using tyrosine-6 peptide as substrate incubated for 60 mins in presence of ATP by Z'-LYTE assay
[10] = molecular target: Serine/threonine-protein kinase Nek6 (Homo sapiens, UniProt Q9HC98); assay: Inhibition of recombinant full length human GST-tagged NEK6 expressed in insect expression system using serine/threonine-22 peptide as substrate incubated for 60 mins in presence of ATP by Z'-LYTE assay
Chain of Serine/threonine-protein kinase Nek6 (Q9HC98 whole entry): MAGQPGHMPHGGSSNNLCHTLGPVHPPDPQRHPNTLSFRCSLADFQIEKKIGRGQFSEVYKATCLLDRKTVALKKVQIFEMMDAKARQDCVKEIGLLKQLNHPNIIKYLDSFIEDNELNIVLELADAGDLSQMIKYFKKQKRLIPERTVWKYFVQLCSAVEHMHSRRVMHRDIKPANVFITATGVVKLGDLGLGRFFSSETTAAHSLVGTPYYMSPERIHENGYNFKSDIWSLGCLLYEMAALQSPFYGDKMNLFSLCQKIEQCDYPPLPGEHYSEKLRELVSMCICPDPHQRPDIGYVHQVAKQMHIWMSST

[11] = molecular target: Mitogen-activated protein kinase 13 (Homo sapiens, UniProt O15264); assay: Inhibition of recombinant full length human His-tagged p38delta expressed in baculovirus expression system using serine/threonine-3 peptide as substrate incubated for 60 mins in presence of ATP by Z'-LYTE assay
Ephrin type-B receptor 3 = Ephrin type-B receptor 3 (Homo sapiens, UniProt P54753); assay: Inhibition of recombinant human GST-tagged EPHB3 catalytic domain expressed in baculovirus expression system using tyrosine-2 peptide as substrate incubated for 60 mins in presence of ATP by Z'-LYTE assay
[12] = molecular target: Platelet-derived growth factor receptor alpha (Homo sapiens, UniProt P16234, D842V); assay: Inhibition of recombinant human GST-tagged PDGFRalpha D842V cytoplasmic domain expressed in baculovirus expression system using tyrosine-4 peptide as substrate incubated for 60 mins in presence of ATP by Z'-LYTE assay
[13] = molecular target: Muscarinic acetylcholine receptor M2 (Homo sapiens) (UniProt P08172); assay: Displacement of [3H]N-Methylscopolamine from full length human recombinant Muscarinic M2 receptor expressed in CHOK1 cells at 10 uM measured after 120 mins by radiometric scintillation analysis relative to control; format: cell-based; settings: CHO-K1
[14] = molecular target: Sodium-dependent noradrenaline transporter (Homo sapiens) (UniProt P23975); assay: Displacement of [125I]RTI-55 from full length recombinant human NET expressed in MDCK cells at 10 uM after 3 hrs by radiometric scintillation analysis relative to control; format: cell-based
[15] = molecular target: Tyrosine-protein kinase SYK (Homo sapiens, UniProt P43405); assay: Inhibition of recombinant full length human GST-tagged SYK expressed in baculovirus expression system using tyrosine-2 peptide as substrate incubated for 60 mins in presence of ATP by Z'-LYTE assay
[16] = molecular target: Serine/threonine-protein kinase Nek2 (Homo sapiens, UniProt P51955); assay: Inhibition of recombinant full length human His-tagged NEK2 expressed in baculovirus expression system using serine/threonine-7 peptide as substrate incubated for 60 mins in presence of ATP by Z'-LYTE assay
Chain of Serine/threonine-protein kinase Nek2 (P51955 whole entry): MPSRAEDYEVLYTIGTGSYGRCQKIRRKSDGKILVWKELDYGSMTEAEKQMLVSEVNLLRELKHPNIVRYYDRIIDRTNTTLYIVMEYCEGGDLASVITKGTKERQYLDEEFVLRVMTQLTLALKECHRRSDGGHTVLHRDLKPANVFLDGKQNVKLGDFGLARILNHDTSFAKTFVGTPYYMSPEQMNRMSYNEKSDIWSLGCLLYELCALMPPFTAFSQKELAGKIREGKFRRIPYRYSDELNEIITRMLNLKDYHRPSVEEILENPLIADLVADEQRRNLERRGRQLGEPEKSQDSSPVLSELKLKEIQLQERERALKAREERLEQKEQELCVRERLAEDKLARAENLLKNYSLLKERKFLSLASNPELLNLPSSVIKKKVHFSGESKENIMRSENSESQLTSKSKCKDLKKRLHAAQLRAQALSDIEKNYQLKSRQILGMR

Homo sapiens = species: Homo sapiens; assay: Selectivity index, ratio IC50 for inhibition of recombinant human full-length N-terminal His6-tagged p110beta/untagged full-length p85alpha expressed in baculovirus infected Sf21 cells to ratio IC50 for inhibition of recombinant human full-length N-terminal GST-tagged p110delta/untagged full-length p85alpha expressed in baculovirus infected Sf21 cells
[17] = molecular target: MAP kinase-interacting serine/threonine-protein kinase 1 (Homo sapiens, UniProt Q9BUB5); assay: Inhibition of recombinant full length human GST-tagged MKNK1 expressed in insect cells using serine/threonine-7 peptide as substrate incubated for 60 mins in presence of ATP by Z'-LYTE assay
Chain of MAP kinase-interacting serine/threonine-protein kinase 1 (Q9BUB5 whole entry): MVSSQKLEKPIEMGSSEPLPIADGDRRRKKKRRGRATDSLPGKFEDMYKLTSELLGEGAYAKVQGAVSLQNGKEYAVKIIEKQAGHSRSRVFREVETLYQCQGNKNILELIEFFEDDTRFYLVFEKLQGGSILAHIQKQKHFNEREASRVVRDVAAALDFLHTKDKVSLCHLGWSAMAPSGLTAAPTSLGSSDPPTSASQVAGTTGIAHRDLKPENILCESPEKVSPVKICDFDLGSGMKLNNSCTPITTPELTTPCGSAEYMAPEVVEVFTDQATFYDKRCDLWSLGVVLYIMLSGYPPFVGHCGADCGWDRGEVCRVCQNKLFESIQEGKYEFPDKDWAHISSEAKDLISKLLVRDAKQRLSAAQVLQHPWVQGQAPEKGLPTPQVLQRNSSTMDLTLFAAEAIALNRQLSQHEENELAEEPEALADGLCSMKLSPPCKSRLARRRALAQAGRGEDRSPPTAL

[18] = Volume of drug distribution in rat at 0.5 mg/kg, iv or 1 mg/kg, po; format: ADME, organism-based; settings: in vivo
[19] = molecular target: 5-hydroxytryptamine receptor 2A (Homo sapiens) (UniProt P28223); assay: Displacement of [3H]ketanserin from full length human recombinant 5HT2A receptor expressed in CHOK-1 cells at 10 uM measured after 60 mins by radiometric scintillation analysis relative to control; format: cell-based
Chain of 5-hydroxytryptamine receptor 2A (Homo sapiens) (P28223 whole entry, the tested form may be a part): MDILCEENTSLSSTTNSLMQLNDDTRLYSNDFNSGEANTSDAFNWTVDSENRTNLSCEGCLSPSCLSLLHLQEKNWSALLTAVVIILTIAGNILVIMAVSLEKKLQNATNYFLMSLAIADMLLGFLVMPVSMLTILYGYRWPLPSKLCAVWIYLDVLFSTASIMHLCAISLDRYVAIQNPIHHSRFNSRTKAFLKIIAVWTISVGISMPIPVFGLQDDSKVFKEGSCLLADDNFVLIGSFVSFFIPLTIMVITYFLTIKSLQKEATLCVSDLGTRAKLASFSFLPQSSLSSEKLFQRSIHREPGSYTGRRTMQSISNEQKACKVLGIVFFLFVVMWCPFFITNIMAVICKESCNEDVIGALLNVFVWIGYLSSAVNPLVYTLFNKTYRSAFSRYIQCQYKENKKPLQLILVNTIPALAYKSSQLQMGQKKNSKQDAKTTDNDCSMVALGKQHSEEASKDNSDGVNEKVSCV

[20] = molecular target: Serine/threonine-protein kinase Sgk1 (Homo sapiens, UniProt O00141); assay: Inhibition of recombinant human GST-tagged SGK1 catalytic domain (60 to 431 residues) expressed in baculovirus expression system using serine/threonine-6 peptide as substrate incubated for 60 mins in presence of ATP by Z'-LYTE assay
[21] = molecular target: Serine/threonine-protein kinase PAK 1 (Homo sapiens, UniProt Q13153); assay: Inhibition of recombinant full length human GST-tagged PAK1 expressed in baculovirus expression system using serine/threonine-19 peptide as substrate incubated for 60 mins in presence of ATP by Z'-LYTE assay
Chain of Serine/threonine-protein kinase PAK 1 (Q13153 whole entry): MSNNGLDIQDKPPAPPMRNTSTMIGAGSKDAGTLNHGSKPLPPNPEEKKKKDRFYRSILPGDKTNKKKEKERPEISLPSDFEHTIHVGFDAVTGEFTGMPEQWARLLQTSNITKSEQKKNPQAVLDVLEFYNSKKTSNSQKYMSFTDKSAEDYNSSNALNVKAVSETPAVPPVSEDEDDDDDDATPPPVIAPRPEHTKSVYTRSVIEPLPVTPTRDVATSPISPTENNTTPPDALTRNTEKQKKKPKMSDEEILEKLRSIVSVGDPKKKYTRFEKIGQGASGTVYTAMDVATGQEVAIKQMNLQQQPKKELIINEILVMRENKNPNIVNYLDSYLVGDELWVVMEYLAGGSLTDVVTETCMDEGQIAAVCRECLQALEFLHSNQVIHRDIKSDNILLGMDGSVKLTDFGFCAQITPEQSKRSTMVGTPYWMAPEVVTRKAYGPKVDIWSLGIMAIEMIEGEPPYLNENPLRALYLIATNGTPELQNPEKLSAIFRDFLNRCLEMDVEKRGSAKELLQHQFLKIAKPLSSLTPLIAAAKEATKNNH

[22] = Unbound clearance in dog at 0.5 mg/kg, iv or 1 mg/kg, po; format: ADME, organism-based, Canis lupus familiaris; settings: in vivo

C[C@@H]1C[C@H]1C(=O)N1CCN(c2cnc(C#N)c(-c3cnn(C)c3)n2)C[C@H]1C gave an IC50 [1] greater than 100 µM, an IC50 [2] greater than 100 µM and an inhibition [3] of 5%. It also gave an IC50 [4] greater than 100 µM, an IC50 [5] greater than 100 µM and an inhibition [6] of 2%. It also gave an IC50 (SRSF protein kinase 3) greater than 100 µM, an IC50 [7] greater than 100 µM and an IC50 [8] greater than 100 µM. The IC50 [9] was greater than 100 µM, the IC50 [10] was greater than 100 µM and the IC50 [11] was greater than 100 µM. It also gave an IC50 (Ephrin type-B receptor 3) greater than 100 µM, an IC50 [12] greater than 100 µM and an inhibition [13] of 1%. For the same molecule, the inhibition [14] was 3%, the IC50 [15] was greater than 100 µM and the IC50 [16] was greater than 100 µM. It also gave a Ratio IC50 (Homo sapiens) of 2990, an IC50 [17] greater than 100 µM and a Vd [18] of 1.1 L/kg. It also gave an inhibition [19] of 6%, an IC50 [20] greater than 100 µM and an IC50 [21] greater than 100 µM. It also gave a CL free [22] of 37 mL/min/kg.
